Starred links: 1 amine or outer side, 2 acyl side, 3 side chain; linkers in the order of their positions; H or OH if unused. Positions of bridges follow the written chain, without caps; N, C: chain ends. Residues, ends and D or L forms follow the SMILES beside them. Chains are numbered I, II in the order given. X3 = O=C(CCOCCOCCOCCOCCOCCOCCOCCOCCOCCOCCOCCOCCOCCOCCOCCOCCOCCOCCOCCOCCOCCC(=O)[*:2])[*:1]; CO(CH2CH2O)9CH2CH2CO = O=C(CCOCCOCCOCCOCCOCCOCCOCCOCCOCCC(=O)[*:2])[*:1]
Key:
[1] = target: T1, Vascular endothelial growth factor A, long form (Homo sapiens) (UniProt P15692); assay: Binding affinity to human VEGF (13 to 107 residues) expressed in Escherichia coli Rosetta (DE3) cells assessed as Gibbs free energy change at 37 degreeC by isothermal titration calorimetry analysis
T1 sequence (whole entry): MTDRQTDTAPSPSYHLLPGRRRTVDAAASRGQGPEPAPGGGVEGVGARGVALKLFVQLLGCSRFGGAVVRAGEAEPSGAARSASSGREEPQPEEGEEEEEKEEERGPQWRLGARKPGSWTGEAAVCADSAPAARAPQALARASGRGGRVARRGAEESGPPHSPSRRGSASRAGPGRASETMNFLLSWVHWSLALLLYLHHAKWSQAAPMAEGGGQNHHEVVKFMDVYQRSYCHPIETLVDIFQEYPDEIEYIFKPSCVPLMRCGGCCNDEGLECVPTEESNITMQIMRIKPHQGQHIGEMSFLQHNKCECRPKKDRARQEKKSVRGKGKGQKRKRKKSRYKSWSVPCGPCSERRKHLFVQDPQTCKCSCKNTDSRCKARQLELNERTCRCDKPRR

[2] = target: T1, Vascular endothelial growth factor A, long form (Homo sapiens); assay: Binding affinity to human VEGF (13 to 107 residues) expressed in Escherichia coli Rosetta (DE3) cells assessed as change in heat capacity at 20 degreeC by isothermal titration calorimetry analysis
[3] = target: T1, Vascular endothelial growth factor A, long form (Homo sapiens); assay: Binding affinity to human VEGF (13 to 107 residues) expressed in Escherichia coli Rosetta (DE3) cells assessed as Gibbs free energy change at 20 degreeC by isothermal titration calorimetry analysis
[4] = target: T2, Vascular endothelial growth factor A, long form (Homo sapiens, UniProt P15692); assay: Binding affinity to human VEGF (13 to 107 residues) expressed in Escherichia coli Rosetta (DE3) cells assessed as dissociation constant at 20 degreeC by isothermal titration calorimetry analysis
T2 sequence (P15692 whole entry): T1 sequence (whole entry)

[5] = target: T1, Vascular endothelial growth factor A, long form (Homo sapiens); assay: Binding affinity to human VEGF (13 to 107 residues) expressed in Escherichia coli Rosetta (DE3) cells assessed as change in entropy at 20 degreeC by isothermal titration calorimetry analysis
[6] = target: T1, Vascular endothelial growth factor A, long form (Homo sapiens); assay: Binding affinity to human VEGF (13 to 107 residues) expressed in Escherichia coli Rosetta (DE3) cells assessed as change in enthalpy at 20 degreeC by isothermal titration calorimetry analysis
[7] = target: T2, Vascular endothelial growth factor A, long form; assay: Binding affinity to human VEGF (13 to 107 residues) expressed in Escherichia coli Rosetta (DE3) cells assessed as dissociation constant at 37 degreeC by isothermal titration calorimetry analysis
[8] = target: T1, Vascular endothelial growth factor A, long form (Homo sapiens); assay: Binding affinity to human VEGF (13 to 107 residues) expressed in Escherichia coli Rosetta (DE3) cells assessed as change in entropy at 37 degreeC by isothermal titration calorimetry analysis
[9] = target: T1, Vascular endothelial growth factor A, long form (Homo sapiens); assay: Binding affinity to human VEGF (13 to 107 residues) expressed in Escherichia coli Rosetta (DE3) cells assessed as change in enthalpy at 37 degreeC by isothermal titration calorimetry analysis

deltaG [1] [kcal/mol]	DeltaCp [2] [kcal/mol/K]	deltaG [3] [kcal/mol]	Kd [4] [nM]	-TdeltaS [5] [kcal/mol]	deltaH [6] [kcal/mol]	Kd [7] [nM]	-TdeltaS [8] [kcal/mol]	deltaH [9] [kcal/mol]	SMILES
-10.5	-0.86	-10.5	15	26.1	-36.6	37	40.7	-51.3	CC[C@H](C)[C@@H]1NC(=O)[C@H](CC(=O)O)NC(=O)[C@@H](NC(C)=O)CSSC[C@@H]2NC(=O)[C@H](CCCCNC(=O)C[C@@H](C(=O)N[C@@H](CC(C)C)C(N)=O)NC(=O)[C@H](CCC(=O)O)NC(=O)[C@H](Cc3ccccc3)NC2=O)NC(=O)[C@H](Cc2c[nH]c3ccccc23)NC(=O)[C@H](CCC(=O)O)NC(=O)[C@H](Cc2c[nH]c3ccccc23)NC(=O)[C@H](CCCCNC(=O)CCOCCOCCOCCOCCOCCOCCOCCOCCOCCOCCOCCOCCOCCOCCOCCOCCOCCOCCOCCOCCOCCC(=O)NCCCC[C@@H]2NC(=O)[C@H](C(C)C)NC(=O)[C@H](Cc3cnc[nH]3)NC(=O)[C@H]([C@@H](C)CC)NC(=O)[C@H](CC(=O)O)NC(=O)[C@@H](NC(C)=O)CSSC[C@@H]3NC(=O)[C@H](CCCCNC(=O)C[C@@H](C(=O)N[C@@H](CC(C)C)C(N)=O)NC(=O)[C@H](CCC(=O)O)NC(=O)[C@H](Cc4ccccc4)NC3=O)NC(=O)[C@H](Cc3c[nH]c4ccccc34)NC(=O)[C@H](CCC(=O)O)NC(=O)[C@H](Cc3c[nH]c4ccccc34)NC2=O)NC(=O)[C@H](C(C)C)NC(=O)[C@H](Cc2cnc[nH]2)NC1=O (I: Ac-CDIHVKWEWKCFEDL-NH2 / II: Ac-CDIHVKWEWKCFEDL-NH2; disulfide I:1-I:11, II:1-II:11; linker I:6-II:6 via X3; lactam I:10-I:14, II:10-II:14)
-10	-0.55	-10.2	26	22.6	-32.8	90	32.1	-42.1	CC[C@H](C)[C@@H]1NC(=O)[C@H](CC(=O)O)NC(=O)[C@@H](NC(C)=O)CSSC[C@@H]2NC(=O)[C@H](CCCCNC(=O)C[C@@H](C(=O)N[C@@H](CC(C)C)C(N)=O)NC(=O)[C@H](CCC(=O)O)NC(=O)[C@H](Cc3ccccc3)NC2=O)NC(=O)[C@H](Cc2c[nH]c3ccccc23)NC(=O)[C@H](CCC(=O)O)NC(=O)[C@H](Cc2c[nH]c3ccccc23)NC(=O)[C@H](CCCCNC(=O)CCOCCOCCOCCOCCOCCOCCOCCOCCOCCC(=O)NCCCC[C@@H]2NC(=O)[C@H](C(C)C)NC(=O)[C@H](Cc3cnc[nH]3)NC(=O)[C@H]([C@@H](C)CC)NC(=O)[C@H](CC(=O)O)NC(=O)[C@@H](NC(C)=O)CSSC[C@@H]3NC(=O)[C@H](CCCCNC(=O)C[C@@H](C(=O)N[C@@H](CC(C)C)C(N)=O)NC(=O)[C@H](CCC(=O)O)NC(=O)[C@H](Cc4ccccc4)NC3=O)NC(=O)[C@H](Cc3c[nH]c4ccccc34)NC(=O)[C@H](CCC(=O)O)NC(=O)[C@H](Cc3c[nH]c4ccccc34)NC2=O)NC(=O)[C@H](C(C)C)NC(=O)[C@H](Cc2cnc[nH]2)NC1=O (I: Ac-CDIHVKWEWKCFEDL-NH2 / II: Ac-CDIHVKWEWKCFEDL-NH2; disulfide I:1-I:11, II:1-II:11; linker I:6-II:6 via CO(CH2CH2O)9CH2CH2CO; lactam I:10-I:14, II:10-II:14)
		-12.3		17	-29.3				COc1ccc([C@H]2CNC(=O)C2)cc1OC1CCCC1 [S-ROLIPRAM]
			129			573			CC[C@H](C)[C@@H]1NC(=O)[C@H](CC(=O)O)NC(=O)[C@@H](NC(C)=O)CSSC[C@@H]2NC(=O)[C@H](CCCCNC(=O)C[C@@H](C(=O)N[C@@H](CC(C)C)C(N)=O)NC(=O)[C@H](CCC(=O)O)NC(=O)[C@H](Cc3ccccc3)NC2=O)NC(=O)[C@H](Cc2c[nH]c3ccccc23)NC(=O)[C@H](CCC(=O)O)NC(=O)[C@H](Cc2c[nH]c3ccccc23)NC(=O)[C@H](CCCCN)NC(=O)[C@H](C(C)C)NC(=O)[C@H](Cc2cnc[nH]2)NC1=O (Ac-CDIHVKWEWKCFEDL-NH2; disulfide 1-11; lactam 10-14)
